# Data published in US20070231921A1, “Method and system for determining whether a drug will be effective on a patient with a disease” (priority 2006, published 2007).
# Experiments:
# [1] = test system: Non-Small-Cell Lung Cancer; assay: Response rate of Iressa in Japanese NSCLC patients, without and with filtering by the serum mass spectrometer test; format: in vivo, human; details: Japanese population
# Protocol: Continuing with FIG. 3, step 312, learning may be utilized in generating classifiers for a training set of spectra. In the case of sampling serum for detecting whether an anti-cancer drug will be effective on non-small-cell lung cancer, control groups of patients were utilized, including using three sets of patients whose cancer progressed following chemotherapy. Each of the patients was treated with Iressa and information, including survival times, of these patients was recorded. […] Each data set represents the cancer research center from which spectra and associated patient information was received.
# TABLE III is a summary of the data set attributes used in a study to determine whether a classifier algorithm could be effective in determining whether a cancer patient would be responsive to Iressa. Data sets Italian 1, Italian 2, Japan 1, and Japan 2 were treated with Iressa following sample collection. Training and testing in the development phase was done crosswise from the Italian 1 sets and the two Japanese sets. The patient data included survival data, where the Italian set had very complete patient history together with treatment and cancer type, the Japanese sets only included prognostic information relating to the WHO definitions of clinical labels, including stable disease (SD), progressive disease (PD), and partial responders (PR) measured by CT imaging. […]
# [2] = test system: Non-Small-Cell Lung Cancer; details: NSCLC patients in Asia, compared with Caucasian populations; cited from earlier work
compound,measurement,setting,value
"COc1cc2ncnc(Nc3ccc(F)c(Cl)c3)c2cc1OCCCN1CCOCC1 [Iressa, gefitinib]",response rate of Iressa,[1]; after serum based mass spectrometer test filters non-responders from responders,90%
same,response rate of Iressa,[1]; before filtering non-responders from responders,65%
same,response rate,[2],considerably higher
